Test [1] concerns the target T1, interaction between GMPPNP-bound recombinant K-Ras4B G12C mutant protein and cRAF RAS-binding domain (cRAF-RBD) (Homo sapiens, UniProt P01116, G12C).
T1 construct: His-tag (N)
The test is described as follows: Inhibitory activity on interaction between KRAS G12C and cRAF (Alpha technology). The note with it: GMPPNP-bound KRAS G12C incubated with compound 25° C. 1 hour; Table 2-1; read-out: IC50. Put shortly:
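Alpha signal measured 1.5 h after adding cRAF-RBD (aa 50-132) and detection reagents to GMPPNP-bound KRAS G12C (aa 1-169) pretreated 1 h at 25° C with compound (pH 7.5 buffer). 0% inhibition = DMSO, 100% = GDP-loaded KRAS; IC50 by curve fit.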

Test [2] relates to MIA PaCa-2 cells. Briefly: Growth inhibition activity on KRAS-G12C mutant cell line (CellTiter-Glo 3D). The format is cell-based, human. Particulars: Homo sapiens, MIA PaCa-2, 72 h, MIA PaCa-2, 3-day culture with compound; Table 3-1. Put shortly:
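IC50 (nM) derived from inhibition of luminescence (CellTiter-Glo 3D) relative to compound-free wells. Cells were seeded in U-bottom plates, grown 1 day, then exposed to compound for 3 days at 37 °C with 0.2% final DMSO.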
In general terms: Cellular ATP, detected with luciferase, serves as a proxy for viable cell number.

T1 sequence (P01116 with tags, fused parts or gaps isoform P01116-2 G12C): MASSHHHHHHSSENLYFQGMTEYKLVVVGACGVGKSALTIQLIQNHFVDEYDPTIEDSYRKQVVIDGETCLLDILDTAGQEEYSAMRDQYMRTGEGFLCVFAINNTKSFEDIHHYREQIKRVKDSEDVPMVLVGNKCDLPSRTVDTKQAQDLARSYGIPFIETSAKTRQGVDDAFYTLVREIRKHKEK

One may read the IC50 as the point on the concentration scale where inhibition reaches its midpoint. Take `Cn1cnc2c3c(c(C(F)(F)F)cc21)-c1cccn2c(C(=O)c4cc(F)c(NC(=O)/C=C/CN[C@@H]5[C@@H]6COC[C@@H]65)c(F)c4)cc(c12)CCO3` [Example 156, (E)-4-(((1R,5S,6s)-3-oxabicyclo[3.1.0]hexan-6-yl)amino)-N-(2,6-difluoro-4-(9-methyl-7-(trifluoromethyl)-13,14-dihydro-9H-imidazo-[4″,5″:5′,6′]benzo[1′,2′: 2,3]oxocino[4,5,6-hi]-indolizine-2-carbonyl)-phenyl)but-2-enamide]: the half-maximal inhibitory concentration (IC50) in test [1] was found to be 8.06 nM; in test [2] it was 10.3 nM.

Turning to `CN1CCc2nc(C(=O)c3cc(F)c(NC(=O)C=CCNC4(C)COC4)c(F)c3)n3cccc(c23)-c2c(C(F)(F)F)cc3c(ncn3C)c21` [Example 157, (E)-N-(4-(8,11-dimethyl-6-(trifluoromethyl)-8,11,12,13-tetrahydro-1,2a,8,10,11-pentaaza-cycloocta[1,2,3-cd:5,4-e′]-diindene-2-carbonyl)-2,6-difluorophenyl)-4-((3-methyloxetan-3-yl)-amino)but-2-enamide], the IC50 in test [1] is 67.6 nM; in test [2] it was 62.1 nM.

As to `COCc1nc2c3c(c(C(F)(F)F)cc2n1C)-c1cccn2c(C(=O)c4cc(F)c(NC(=O)/C=C/CN[C@H]5CCOC5)c(F)c4)cc(c12)C(=O)N(C)C3` [Example 158, (S,E)-N-(2,6-difluoro-4-(10-(methoxymethyl)-9,13-dimethyl-14-oxo-7-(trifluoromethyl)-9,12,13,14-tetrahydroimidazo[4″,5″:3′,4′]benzo[1′,2′:6,7]azocino[5,4,3-hi]indolizine-2-carbonyl)phenyl)-4-((tetrahydrofuran-3-yl)amino)but-2-enamide], the concentration for half-maximal inhibition (IC50) amounted to 77.6 nM in test [1] and 95.4 nM in test [2].

As to `Cn1cnc2c3c(c(C(F)(F)F)cc21)-c1cccn2c(C(=O)c4cc(F)c(NC(=O)/C=C/CN5CCC5)c(F)c4)cc(c12)CCO3` [Example 161, (E)-4-(azetidin-1-yl)-N-(2,6-difluoro-4-(9-methyl-7-(trifluoromethyl)-13,14-dihydro-9H-imidazo-[4″,5″:5′,6′]benzo[1′,2′: 2,3]oxocino[4,5,6-hi]-indolizine-2-carbonyl)-phenyl)but-2-enamide], the IC50 was found to be 63.2 nM in test [1] and 21.6 nM in test [2].

For the compound `Cn1cnc2c3c(c(C(F)(F)F)cc21)-c1cccn2c(C(=O)c4cc(F)c(NC(=O)/C=C/CN5CC[C@H]5C(C)(C)O)c(F)c4)cc(c12)CCO3` [Example 162, (S,E)-N-(2,6-difluoro-4-(9-methyl-7-(trifluoro-methyl)-13,14-dihydro-9H-imidazo[4″,5″:5′,6′]-benzo[1′,2′:2,3]oxocino-[4,5,6-hi]indolizine-2-carbonyl)phenyl)-4-(2-(2-hydroxypropan-2-yl)-azetidin-1-yl)but-2-enamide], the IC50 in test [1] worked out at 22.4 nM; in test [2], 15.2 nM.

On to `Cn1cnc2c3c(c(C(F)(F)F)cc21)-c1cccn2c(C(=O)c4cc(F)c(NC(=O)/C=C/CN5CC[C@H]5CO)c(F)c4)cc(c12)CCO3` [Example 165, (S,E)-N-(2,6-difluoro-4-(9-methyl-7-(trifluoro-methyl)-13,14-dihydro-9H-imidazo[4″,5″:5′,6′]-benzo[1′,2′:2,3]oxocino-[4,5,6-hi]indolizine-2-carbonyl)phenyl)-4-(2-(hydroxymethyl)azetidin-1-yl)but-2-enamide], for which the IC50 in test [1] came out at 3.75 nM; in test [2], 5.44 nM.

With `CN1CCc2cc(C(=O)c3cc(F)c(NC(=O)/C=C/CN[C@H]4CCOC4)c(F)c3)n3cccc(c23)-c2c(C(F)(F)F)cc3c(ncn3C3CC3)c21` [Example 166, (S,E)-N-(4-(9-cycloprop-yl-12-methyl-7-(trifluoro-methyl)-9,12,13,14-tetra-hydroimidazo[4″,5″:5′,6′]-benzo[1′,2′:2,3]azocino-[4,5,6-hi]indolizine-2-carbonyl)-2,6-difluoro-phenyl)-4-((tetrahydro-furan-3-yl)amino)but-2-enamide], the values for the IC50 in test [1] and in test [2] were 33.7 nM and 51.2 nM, respectively.

As to `COC[C@@H]1CCN1C/C=C/C(=O)Nc1c(F)cc(C(=O)c2cc3c4c(cccn24)-c2c(C(F)(F)F)cc4c(ncn4C)c2OCC3)cc1F` [Example 169, (S,E)-N-(2,6-difluoro-4-(9-methyl-7-(trifluoro-methyl)-13,14-dihydro-9H-imidazo[4″,5″:5′,6′]-benzo[1′,2′:2,3]oxocino-[4,5,6-hi]indolizine-2-carbonyl)phenyl)-4-(2-(methoxymethyl)azetidin-1-yl)but-2-enamide], the IC50 in test [1] was 59.6 nM; in test [2], 15 nM.

In the case of `COCc1nc2c3c(c(OC)cc2n1C)-c1cccn2c(C(=O)c4cc(F)c(NC(=O)/C=C/CNC5(C)CC5)c(F)c4)cc(c12)CCN3C` [Example 174, (E)-N-(2,6-difluoro-4-(7-methoxy-10-(methoxymethyl)-9,12-dimethyl-9,12,13,14-tetrahydroimidazo[4″,5″:5′,6′]benzo[1′,2′:2,3]azocino[4,5,6-hi]indolizine-2-carbonyl)phenyl)-4-((1-methylcyclopropyl)amino)but-2-enamide], the concentration for half-maximal inhibition (IC50) in test [1] is 7.41 nM; in test [2], 7.45 nM.

Turning to `Cn1cnc2c3c(c(C(F)(F)F)cc21)-c1cccn2c(C(=O)c4cc(F)c(NC(=O)/C=C/CN5CC[C@H]5CF)c(F)c4)cc(c12)CCO3` [Example 175, (S,E)-N-(2,6-difluoro-4-(9-methyl-7-(trifluoro-methyl)-13,14-dihydro-9H-imidazo[4″,5″:5′,6′]-benzo[1′,2′:2,3]oxocino-[4,5,6-hi]indolizine-2-carbonyl)phenyl)-4-(2-(fluoromethyl)azetidin-1-yl)but-2-enamide], the figures for the IC50 in test [1] and in test [2] were 90.4 nM and 23.3 nM, respectively.

For `COCc1nc2c3c(c(C(F)(F)F)cc2n1C)-c1cccn2c(C(=O)c4cc(F)c(NC(=O)/C=C/CNC5(C)CC5)c(F)c4)nc(c12)CCN3C` [Example 185, (E)-N-(2,6-difluoro-4-(9-(methoxymethyl)-8,11-dimethyl-6-(trifluorometh-yl)-8,11,12,13-tetrahydro-1,2a,8,10,11-pentaaza-cycloocta[1,2,3-cd:5,4-e′]diindene-2-carbonyl)-phenyl)-4-((1-methyl-cyclopropyl)amino)but-2-enamide], the IC50 in test [1] worked out at 40.8 nM; in test [2], 75.7 nM.

Take `Cc1cnc2c3c(c(C(F)(F)F)cn12)-c1cccn2c(C(=O)c4cc(F)c(NC(=O)/C=C/CNC5(C)COC5)c(F)c4)cc(c12)CCN3C` [Example 187, (E)-N-(4-(10,13-dimethyl-7-(trifluoromethyl)-14,15-dihydro-13H-imidazo[1″,2″:1′,2′]pyrido[3′,4′:2,3]azocino[4,5,6-hi]indolizine-2-carbonyl)-2,6-difluorophenyl)-4-((3-methyloxetan-3-yl)amino)but-2-enamide]: the IC50 in test [1] is 36.4 nM; in test [2], 39 nM.

As for `Cn1cnc2c3c(c(C(F)(F)F)cc21)-c1cccn2c(C(=O)c4cc(F)c(NC(=O)/C=C/CN5C[C@@H]6C[C@H]5CO6)c(F)c4)cc(c12)CCO3` [Example 189, (E)-4-((1S,4S)-2-oxa-5-azabicyclo[2.2.1]heptan-5-yl)-N-(2,6-difluoro-4-(9-methyl-7-(trifluoro-methyl)-13,14-dihydro-9H-imidazo[4″,5″:5′,6′]-benzo[1′,2′:2,3]oxocino-[4,5,6-hi]indolizine-2-carbonyl)phenyl)but-2-enamide], the IC50 in test [1] worked out at 15.2 nM; in test [2] it was 6.1 nM.

With `Cn1cnc2c3c(c(C(F)(F)F)cc21)-c1cccn2c(C(=O)c4cc(F)c(NC(=O)/C=C/CN5C[C@H]6C[C@@H]5CO6)c(F)c4)cc(c12)CCO3` [Example 190, (E)-4-((1R,4R)-2-oxa-5-azabicyclo[2.2.1]heptan-5-yl)-N-(2,6-difluoro-4-(9-methyl-7-(trifluoro-methyl)-13,14-dihydro-9H-imidazo[4″,5″:5′,6′]-benzo[1′,2′:2,3]oxocino-[4,5,6-hi]indolizine-2-carbonyl)phenyl)but-2-enamide], the values for the IC50 in test [1] and in test [2] were 10.3 nM and 9.08 nM, respectively.

Turning to `COc1cc(N2CCCC2=O)cc2c1-c1cccn3c(C(=O)c4cc(F)c(NC(=O)/C=C/CN[C@H]5CCOC5)c(F)c4)cc(c13)CCN2C` [Example 191, (S,E)-N-(2,6-difluoro-4-(9-methoxy-5-methyl-7-(2-oxopyrrolidin-1-yl)-4,5-dihydro-3H-benzo-[2,3]azocino[4,5,6-hi]-indolizine-1-carbonyl)-phenyl)-4-((tetrahydro-furan-3-yl)amino)but-2-enamide], the IC50 amounted to 97.1 nM in test [1] and 167 nM in test [2].

Turning to `CC(=O)NC[C@@H]1CCN1C/C=C/C(=O)Nc1c(F)cc(C(=O)c2cc3c4c(cccn24)-c2c(C(F)(F)F)cc4c(ncn4C)c2OCC3)cc1F` [Example 192, (S,E)-4-(2-(acetamido-methyl)azetidin-1-yl)-N-(2,6-difluoro-4-(9-meth-yl-7-(trifluoromethyl)-13,14-dihydro-9H-imidazo[4″,5″:5′,6′]benzo-[1′,2′:2,3]oxocino[4,5,6-hi]indolizine-2-carbonyl)-phenyl)but-2-enamide], the IC50 in test [1] worked out at 91.5 nM; in test [2], 24.3 nM.

Consider `Cn1cnc2c3c(c(C(F)(F)F)cc21)-c1cccn2c(C(=O)c4cc(F)c(NC(=O)/C=C/CN5CCCOCC5)c(F)c4)cc(c12)CCO3` [Example 193, (E)-N-(2,6-difluoro-4-(9-methyl-7-(trifluorometh-yl)-13,14-dihydro-9H-imidazo[4″,5″:5′,6′]benzo-[1′,2′:2,3]oxocino[4,5,6-hi]indolizine-2-carbonyl)-phenyl)-4-(1,4-oxazepan-4-yl)but-2-enamide], for which the half-maximal inhibitory concentration (IC50) in test [1] is 39.6 nM; in test [2], 69.5 nM.

These data come from patent US20240262842A1, “SMALL MOLECULE INHIBITORS OF KRAS G12C MUTANT” (Merck Sharp & Dohme LLC, priority 2021, published 2024).
